Laboratory results reported in patent US20220387457A1 (Qlaris Bio, Inc., priority 2020, published 2022).
Read-outs that look alike come from different tables or passages of the source.

Assay: Toxicokinetics after escalating intravenous doses of CKLP1 in beagles
Type: in vivo, beagle dog
Parameters: AUCTlast/Dose: unit not given here
Settings: for AUC(0-t) / Cmax / RAUC / AUC(0-inf) / C0 / Tlast / Tmax / Vd / clearance / half-life / λZ range: dog, in vivo
Protocol: Two beagles (one male and one female) were intravenously injected with escalating doses of CKPL1 (0.05 mg/kg, 0.5 mg/kg, 1.5 mg/kg, 3 mg/kg, and 5 mg/kg) to assess the toxicity of CKLP1. The injection was done through the cephalic vein and CKLP1 was administered in a phosphate buffered saline solution ((0.096% sodium phosphate dibasic, 0.089% sodium dihydrogen orthophosphate monohydrate, 0.83% sodium chloride) pH 6.5±0.1 in sterile water for injection USP). The dosing schedule is shown below in Table 3.
The following parameters and endpoints were evaluated: mortality, clinical observations, body and organ weights, and food consumption. Bioanalytical samples for toxicokinetic parameters (for both CKLP1 and leveromakalim) were collected after each dose level (days 1, 3, 8, 10, and 14) at predose, 1, 3, 6, 8, and 24 hours postdose. Animals were released from the study after completion of the bioanalytical sample collection schedule.
Toxicokinetics (TK) were determined based on the individual exposures for each animal on each sampled study day (days 1, 3, 8, 10, and 14). […] Predose samples had no quantifiable exposure in any animal on any day, with the exception of the female dog on day 10. The predose concentration for the female dog on day 10 was excluded from the TK analysis in order to allow for estimation of the IV C0.

[1] = female dog, IV CKLP1 0.05 mg/kg, study day 1
[2] = female dog, IV CKLP1 0.5 mg/kg, study day 3
[3] = female dog, IV CKLP1 1.5 mg/kg, study day 8
[4] = female dog, IV CKLP1 3 mg/kg, study day 10
[5] = female dog, IV CKLP1 5 mg/kg, study day 14
[6] = male dog, IV CKLP1 0.05 mg/kg, study day 1
[7] = male dog, IV CKLP1 0.5 mg/kg, study day 3
[8] = male dog, IV CKLP1 1.5 mg/kg, study day 8
[9] = male dog, IV CKLP1 3 mg/kg, study day 10
[10] = male dog, IV CKLP1 5 mg/kg, study day 14

With `CC1(C)Oc2ccc(C#N)cc2[C@@H](N2CCCC2=O)[C@@H]1OP(=O)(O)O` [CKLP1] as the molecule, how does the “gender differences in AUC values following each dose” value (IV CKLP1) read?
Its value is “less than 2 fold”.

What about the AUC(0-t) (both sexes, beagle, CKLP1, IV 3 mg/kg, read-out: AUCTlast at MTD, sex-combined) of the same molecule?
The AUC(0-t) was 107000 ng·h/mL.

What about the Cmax (both sexes, beagle, CKLP1, IV 3 mg/kg, read-out: Cmax at MTD, sex-combined) of the same molecule?
Its Cmax is 16.4 µg/mL.

What about the RAUC (iv, 0.05 mg/kg) of the same molecule?
Its RAUC is “LOO”.

What about the “plasma concentrations of CKLP1 relative to levcromakalim” value (early time points after IV CKLP1) of the same molecule?
Its value is “more than 300 fold”.

What about the AUCTlast/Dose [1] of the same molecule?
Its AUCTlast/Dose is 41900.

And the Cmax/Dose [1]?
Its Cmax/Dose is 7.12e+06 µg/mL.

What about the AUCTlast/Dose [2] of the same molecule?
Its AUCTlast/Dose is 41900.

And the Cmax/Dose [2]?
Its Cmax/Dose is 5.98e+06 µg/mL.

What about the AUCTlast/Dose [3] of the same molecule?
The AUCTlast/Dose was 40800.

And the Cmax/Dose [3]?
The Cmax/Dose was 6.03e+06 µg/mL.

And the AUCTlast/Dose [4]?
The AUCTlast/Dose was 42800.

And the Cmax/Dose [4]?
The Cmax/Dose was 6.13e+06 µg/mL.

And the AUCTlast/Dose [5]?
The AUCTlast/Dose was 62300.

And the Cmax/Dose [5]?
Its Cmax/Dose is 5.86e+06 µg/mL.

And the AUC(0-inf) (female, beagle, iv, 0.05 mg/kg)?
The AUC(0-inf) was 2110 ng·h/mL.

What about the AUC(0-t) (female, beagle, iv, 0.05 mg/kg) of the same molecule?
The AUC(0-t) was 2100 ng·h/mL.

What about the C0 (female, beagle, iv, 0.05 mg/kg) of the same molecule?
The C0 was 0.461 µg/mL.

And the Cmax (female, beagle, iv, 0.05 mg/kg)?
Its Cmax is 0.356 µg/mL.

And the RAUC (female, beagle, iv, 0.05 mg/kg)?
The RAUC was 1.00.

And the Tlast (female, beagle, iv, 0.05 mg/kg)?
Its Tlast is 24.0 h.

And the Tmax (female, beagle, iv, 0.05 mg/kg)?
Its Tmax is 1 h.

What about the Vd (female, beagle, iv, 0.05 mg/kg) of the same molecule?
The Vd was 0.112 L/kg.

And the clearance (female, beagle, iv, 0.05 mg/kg)?
The clearance was 0.395 mL/min/kg.

What about the half-life (female, beagle, iv, 0.05 mg/kg) of the same molecule?
Its half-life is 3.26 h.

And the λZ range (female, beagle, iv, 0.05 mg/kg)?
The λZ range was 6 to 24 h.

And the AUC(0-inf) (female, beagle, iv, 0.5 mg/kg)?
The AUC(0-inf) was 21200 ng·h/mL.

What about the AUC(0-t) (female, beagle, iv, 0.5 mg/kg) of the same molecule?
Its AUC(0-t) is 20900 ng·h/mL.

What about the C0 (female, beagle, iv, 0.5 mg/kg) of the same molecule?
The C0 was 3.67 µg/mL.

What about the Cmax (female, beagle, iv, 0.5 mg/kg) of the same molecule?
The Cmax was 2.99 µg/mL.

What about the RAUC (female, beagle, iv, 0.5 mg/kg) of the same molecule?
The RAUC was 10.0.

And the Tlast (female, beagle, iv, 0.5 mg/kg)?
Its Tlast is 24.0 h.

And the Tmax (female, beagle, iv, 0.5 mg/kg)?
The Tmax was 1 h.

What about the Vd (female, beagle, iv, 0.5 mg/kg) of the same molecule?
The Vd was 0.139 L/kg.

What about the clearance (female, beagle, iv, 0.5 mg/kg) of the same molecule?
Its clearance is 0.392 mL/min/kg.

And the half-life (female, beagle, iv, 0.5 mg/kg)?
Its half-life is 4.11 h.

What about the λZ range (female, beagle, iv, 0.5 mg/kg) of the same molecule?
Its λZ range is 6 to 24 h.

And the AUC(0-inf) (female, beagle, iv, 1.5 mg/kg)?
The AUC(0-inf) was 62500 ng·h/mL.

And the AUC(0-t) (female, beagle, iv, 1.5 mg/kg)?
The AUC(0-t) was 61200 ng·h/mL.

What about the C0 (female, beagle, iv, 1.5 mg/kg) of the same molecule?
The C0 was 11 µg/mL.

What about the Cmax (female, beagle, iv, 1.5 mg/kg) of the same molecule?
The Cmax was 9.05 µg/mL.

And the RAUC (female, beagle, iv, 1.5 mg/kg)?
Its RAUC is 29.1.

What about the Tlast (female, beagle, iv, 1.5 mg/kg) of the same molecule?
Its Tlast is 24.0 h.

What about the Tmax (female, beagle, iv, 1.5 mg/kg) of the same molecule?
The Tmax was 1 h.

What about the Vd (female, beagle, iv, 1.5 mg/kg) of the same molecule?
The Vd was 0.162 L/kg.

What about the clearance (female, beagle, iv, 1.5 mg/kg) of the same molecule?
The clearance was 0.4 mL/min/kg.

And the half-life (female, beagle, iv, 1.5 mg/kg)?
The half-life was 4.68 h.

What about the λZ range (female, beagle, iv, 1.5 mg/kg) of the same molecule?
The λZ range was 6 to 24 h.

And the AUC(0-inf) (female, beagle, iv, 3 mg/kg)?
Its AUC(0-inf) is 129000 ng·h/mL.

What about the AUC(0-t) (female, beagle, iv, 3 mg/kg) of the same molecule?
Its AUC(0-t) is 128000 ng·h/mL.

And the C0 (female, beagle, iv, 3 mg/kg)?
The C0 was 22.7 µg/mL.

What about the Cmax (female, beagle, iv, 3 mg/kg) of the same molecule?
The Cmax was 18.4 µg/mL.

And the RAUC (female, beagle, iv, 3 mg/kg)?
The RAUC was 61.0.

What about the Tlast (female, beagle, iv, 3 mg/kg) of the same molecule?
The Tlast was 24.0 h.

What about the Tmax (female, beagle, iv, 3 mg/kg) of the same molecule?
The Tmax was 1 h.

What about the Vd (female, beagle, iv, 3 mg/kg) of the same molecule?
The Vd was 0.099 L/kg.

What about the clearance (female, beagle, iv, 3 mg/kg) of the same molecule?
Its clearance is 0.388 mL/min/kg.

And the half-life (female, beagle, iv, 3 mg/kg)?
Its half-life is 2.94 h.

And the λZ range (female, beagle, iv, 3 mg/kg)?
The λZ range was 6 to 24 h.

And the AUC(0-inf) (female, beagle, iv, 5 mg/kg)?
The AUC(0-inf) was 330000 ng·h/mL.

And the AUC(0-t) (female, beagle, iv, 5 mg/kg)?
Its AUC(0-t) is 311000 ng·h/mL.

And the C0 (female, beagle, iv, 5 mg/kg)?
Its C0 is 32.2 µg/mL.

And the Cmax (female, beagle, iv, 5 mg/kg)?
Its Cmax is 29.3 µg/mL.

What about the RAUC (female, beagle, iv, 5 mg/kg) of the same molecule?
Its RAUC is 148.

What about the Tlast (female, beagle, iv, 5 mg/kg) of the same molecule?
Its Tlast is 24.0 h.

What about the Tmax (female, beagle, iv, 5 mg/kg) of the same molecule?
Its Tmax is 1 h.

What about the Vd (female, beagle, iv, 5 mg/kg) of the same molecule?
Its Vd is 0.131 L/kg.

And the clearance (female, beagle, iv, 5 mg/kg)?
The clearance was 0.253 mL/min/kg.

What about the half-life (female, beagle, iv, 5 mg/kg) of the same molecule?
The half-life was 5.98 h.

What about the λZ range (female, beagle, iv, 5 mg/kg) of the same molecule?
The λZ range was 3 to 24 h.

And the AUCTlast/Dose [6]?
Its AUCTlast/Dose is 22400.

And the Cmax/Dose [6]?
Its Cmax/Dose is 4.9e+06 µg/mL.

What about the AUCTlast/Dose [7] of the same molecule?
Its AUCTlast/Dose is 28500.

And the Cmax/Dose [7]?
Its Cmax/Dose is 5.2e+06 µg/mL.

What about the AUCTlast/Dose [8] of the same molecule?
Its AUCTlast/Dose is 28800.

And the Cmax/Dose [8]?
The Cmax/Dose was 5.13e+06 µg/mL.

And the AUCTlast/Dose [9]?
The AUCTlast/Dose was 28400.

And the Cmax/Dose [9]?
The Cmax/Dose was 4.8e+06 µg/mL.

What about the AUCTlast/Dose [10] of the same molecule?
The AUCTlast/Dose was 31700.

And the Cmax/Dose [10]?
The Cmax/Dose was 4.48e+06 µg/mL.

And the AUC(0-inf) (male, beagle, iv, 0.05 mg/kg)?
The AUC(0-inf) was 1230 ng·h/mL.

And the AUC(0-t) (male, beagle, iv, 0.05 mg/kg)?
The AUC(0-t) was 1120 ng·h/mL.

And the C0 (male, beagle, iv, 0.05 mg/kg)?
Its C0 is 0.301 µg/mL.

And the Cmax (male, beagle, iv, 0.05 mg/kg)?
Its Cmax is 0.245 µg/mL.

And the Tlast (male, beagle, iv, 0.05 mg/kg)?
Its Tlast is 8.00 h.

What about the Tmax (male, beagle, iv, 0.05 mg/kg) of the same molecule?
Its Tmax is 1 h.

What about the Vd (male, beagle, iv, 0.05 mg/kg) of the same molecule?
Its Vd is 0.131 L/kg.

What about the clearance (male, beagle, iv, 0.05 mg/kg) of the same molecule?
The clearance was 0.678 mL/min/kg.

What about the half-life (male, beagle, iv, 0.05 mg/kg) of the same molecule?
The half-life was 2.23 h.

And the λZ range (male, beagle, iv, 0.05 mg/kg)?
Its λZ range is 3 to 8 h.

What about the AUC(0-inf) (male, beagle, iv, 0.5 mg/kg) of the same molecule?
Its AUC(0-inf) is 14300 ng·h/mL.

And the AUC(0-t) (male, beagle, iv, 0.5 mg/kg)?
Its AUC(0-t) is 14300 ng·h/mL.
